For test [1], the target named is T1, Carbonic anhydrase 4 (Bos taurus, UniProt Q95323).
T1 sequence (Q95323 whole entry): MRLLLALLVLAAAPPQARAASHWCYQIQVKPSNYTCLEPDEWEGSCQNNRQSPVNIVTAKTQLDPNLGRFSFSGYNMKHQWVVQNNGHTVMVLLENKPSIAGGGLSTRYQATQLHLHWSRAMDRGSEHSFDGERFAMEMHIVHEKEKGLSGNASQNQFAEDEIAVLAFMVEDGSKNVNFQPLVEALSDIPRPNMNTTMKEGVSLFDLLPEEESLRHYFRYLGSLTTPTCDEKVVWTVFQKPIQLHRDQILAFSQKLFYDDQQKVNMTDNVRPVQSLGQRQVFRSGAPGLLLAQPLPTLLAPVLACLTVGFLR
Description: Compound was evaluated for inhibition against bovine carbonic anhydrase IV

For test [2], the target named is Carbonic anhydrase 2 (Homo sapiens, UniProt P00918).
Description: Compound was evaluated for inhibition against human carbonic anhydrase II
Test [3] addresses Carbonic anhydrase 1 (Homo sapiens, UniProt P00915).
Description: Compound was evaluated for inhibition against human carbonic anhydrase I
The target in test [4] is Carbonic anhydrase 9 (Homo sapiens, UniProt Q16790).
Description: Compound was evaluated for inhibition against human carbonic anhydrase IX

Carbonic anhydrase 1, sequence (P00915 whole entry): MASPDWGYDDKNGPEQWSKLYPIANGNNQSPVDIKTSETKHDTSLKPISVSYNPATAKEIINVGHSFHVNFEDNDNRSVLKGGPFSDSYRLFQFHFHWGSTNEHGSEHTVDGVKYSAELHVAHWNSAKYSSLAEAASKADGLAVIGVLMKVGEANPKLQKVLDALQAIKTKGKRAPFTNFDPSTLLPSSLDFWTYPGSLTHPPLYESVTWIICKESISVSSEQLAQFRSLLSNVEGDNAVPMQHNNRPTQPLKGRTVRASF

Regarding `NS(=O)(=O)c1ccc(S(=O)(=O)Nc2cccc3[nH]cc(Cl)c23)cc1`, the Ki in test [1] is 65 nM; in test [2], 15 nM; in test [3], 31 nM; in test [4], 24 nM.

The term Ki denotes a dissociation constant, usually derived from enzyme kinetics or from competition with a known ligand. A higher Ki goes with a looser hold on the target.
